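These data come from cells grown in 96-well plates and exposed to compound for 48 hours at five concentrations. At the GI50, growth is halved.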 Activity calls are given as the source filed them. No stated cut-off is given here; in the data, active = GI50 up to about 1.1 µM and inactive = higher.
What was measured:
Test in all cases: DTP human tumour cell line panel, 48 h
TK-10 = system: TK-10
HCC 2998 = system: HCC 2998
EKVX = system: EKVX
HCT-116 = system: HCT-116
HCT-15 = system: HCT-15
RPMI-8226 = system: RPMI-8226
HOP-92 = system: HOP-92
A498 = system: A498
SF-539 = system: SF-539
COLO 205 = system: COLO 205
UO-31 = system: UO-31
UACC-62 = system: UACC-62
SK-MEL-5 = system: SK-MEL-5
NCI-H226 = system: NCI-H226
MOLT-4 = system: MOLT-4
K562 = system: K562
SNB-75 = system: SNB-75
UACC-257 = system: UACC-257
Malme-3M = system: Malme-3M
LOX IMVI = system: LOX IMVI

Measured: GI50

CO/C(=N\N=C\c1ccc(Cl)cc1)c1ccncc1
> 100 µM: HCT-15
inactive: TK-10 > 100 µM | HCC 2998 > 100 µM | EKVX > 100 µM | HCT-116 > 100 µM | RPMI-8226 > 100 µM | HOP-92 > 100 µM | A498 > 100 µM | SF-539 > 100 µM | COLO 205 > 100 µM | UO-31 > 100 µM | UACC-62 > 100 µM | SK-MEL-5 > 100 µM | NCI-H226 59.7 µM | MOLT-4 > 100 µM | K562 > 100 µM | SNB-75 63 µM | UACC-257 > 100 µM | Malme-3M > 100 µM

CC1CCN(c2cc(-c3cc4ccccc4o3)oc(=O)c2C#N)CC1
inactive: TK-10 > 100 µM | HCC 2998 > 100 µM | EKVX > 100 µM | HCT-116 > 100 µM | LOX IMVI > 100 µM | RPMI-8226 > 100 µM | HOP-92 5.9 µM | A498 > 100 µM | SF-539 89.1 µM | COLO 205 > 100 µM | UO-31 > 100 µM | SK-MEL-5 > 100 µM | NCI-H226 > 100 µM | MOLT-4 > 100 µM | K562 > 100 µM | SNB-75 > 100 µM | UACC-257 > 100 µM | Malme-3M > 100 µM
> 100 µM: HCT-15

COc1cc2cc(C(=O)N3C[C@@H](CCl)c4c3cc(N)c3ccccc43)[nH]c2c(OC)c1OC
0.000579 µM: HCT-15
active: TK-10 < 0.01 µM | HCC 2998 < 0.01 µM | EKVX 0.231 µM | HCT-116 0.000301 µM | LOX IMVI 0.00313 µM | RPMI-8226 0.0076 µM | HOP-92 0.0048 µM | A498 0.00863 µM | SF-539 0.00213 µM | COLO 205 0.0776 µM | UO-31 0.00622 µM | UACC-62 0.000895 µM | SK-MEL-5 < 0.01 µM | MOLT-4 0.00557 µM | K562 0.00327 µM | SNB-75 < 0.01 µM | UACC-257 0.237 µM | Malme-3M < 0.01 µM

O=C1OCc2c1cc1cc3c(cc1c2-c1ccc2c(c1)OCO2)OCO3.O=C1OCc2cc3cc4c(cc3c(-c3ccc5c(c3)OCO5)c21)OCO4
inactive: TK-10 14.4 µM | HCC 2998 18.7 µM | HCT-116 2.76 µM | LOX IMVI 14.2 µM | RPMI-8226 4.31 µM | HOP-92 13.8 µM | A498 24.7 µM | COLO 205 5.79 µM | UO-31 14 µM | UACC-62 8.55 µM | SK-MEL-5 4.7 µM | NCI-H226 9.77 µM | MOLT-4 2.31 µM | SNB-75 10 µM | UACC-257 25.5 µM | Malme-3M 37.2 µM
6.18 µM: HCT-15
active: K562 0.979 µM

CC(C)(C)OC(=O)N1CCC(NC(=O)NC2CCN(C(=O)OC(C)(C)C)CC2)CC1
inactive: TK-10 > 100 µM | HCC 2998 > 100 µM | EKVX > 100 µM | HCT-116 > 100 µM | LOX IMVI > 100 µM | RPMI-8226 > 100 µM | HOP-92 > 100 µM | A498 > 100 µM | SF-539 > 100 µM | UO-31 > 100 µM | UACC-62 > 100 µM | SNB-75 > 100 µM | UACC-257 > 100 µM | Malme-3M > 100 µM
> 100 µM: HCT-15

COc1ccc(NC(=O)C(=O)Cc2ccc([N+](=O)[O-])c([N+](=O)[O-])c2CC(=O)C(=O)Nc2ccc(OC)cc2OC)c(OC)c1
inactive: TK-10 > 100 µM | HCC 2998 > 100 µM | EKVX > 100 µM | HCT-116 > 100 µM | LOX IMVI > 100 µM | RPMI-8226 > 100 µM | HOP-92 > 100 µM | A498 > 100 µM | COLO 205 > 100 µM | UO-31 > 100 µM | UACC-62 > 100 µM | NCI-H226 > 100 µM | MOLT-4 > 100 µM | K562 > 100 µM | SNB-75 96.2 µM | UACC-257 > 100 µM | Malme-3M > 100 µM
> 100 µM: HCT-15

CN(C)CC1CN=C(N)O1 (stereo unspecified)
> 100 µM: HCT-15
inactive: TK-10 > 100 µM | HCC 2998 > 100 µM | EKVX > 100 µM | HCT-116 > 100 µM | LOX IMVI > 100 µM | RPMI-8226 > 100 µM | HOP-92 > 100 µM | A498 > 100 µM | SF-539 > 100 µM | COLO 205 > 100 µM | UO-31 > 100 µM | UACC-62 > 100 µM | SK-MEL-5 > 100 µM | NCI-H226 > 100 µM | MOLT-4 > 100 µM | K562 > 100 µM | UACC-257 > 100 µM | Malme-3M > 100 µM

CC(C)COC(=O)N1N=NC2C3CC(=O)C(O3)C21 (stereo unspecified)
> 100 µM: HCT-15
inactive: TK-10 22.9 µM | HCC 2998 > 100 µM | EKVX > 100 µM | HCT-116 > 100 µM | LOX IMVI > 100 µM | RPMI-8226 > 100 µM | HOP-92 > 100 µM | A498 > 100 µM | SF-539 > 100 µM | COLO 205 > 100 µM | UO-31 > 100 µM | UACC-62 > 100 µM | SK-MEL-5 > 100 µM | MOLT-4 > 100 µM | K562 > 100 µM | SNB-75 > 100 µM | UACC-257 > 100 µM | Malme-3M > 100 µM

Cc1ccc(-c2cc(=O)c(=O)[nH][nH]2)cc1
inactive: TK-10 > 100 µM | HCC 2998 > 100 µM | EKVX > 100 µM | HCT-116 > 100 µM | LOX IMVI > 100 µM | HOP-92 > 100 µM | A498 > 100 µM | SF-539 > 100 µM | COLO 205 > 100 µM | UO-31 > 100 µM | UACC-62 > 100 µM | SK-MEL-5 > 100 µM | NCI-H226 > 100 µM | MOLT-4 > 100 µM | K562 > 100 µM | SNB-75 18 µM | UACC-257 > 100 µM
> 100 µM: HCT-15

CC1(CO)OC(n2cnc3cncnc32)CC1O (stereo unspecified)
> 100 µM: HCT-15
inactive: TK-10 > 100 µM | HCC 2998 > 100 µM | EKVX > 100 µM | HCT-116 > 100 µM | RPMI-8226 > 100 µM | HOP-92 > 100 µM | A498 > 100 µM | SF-539 > 100 µM | COLO 205 > 100 µM | UO-31 > 100 µM | UACC-62 > 100 µM | SK-MEL-5 > 100 µM | NCI-H226 > 100 µM | MOLT-4 > 100 µM | K562 > 100 µM | UACC-257 > 100 µM | Malme-3M > 100 µM

CCOC(=O)c1cc(Cl)ccc1OC(N)=O
inactive: HCC 2998 > 100 µM | EKVX > 100 µM | HCT-116 > 100 µM | LOX IMVI > 100 µM | RPMI-8226 > 100 µM | HOP-92 > 100 µM | A498 > 100 µM | SF-539 > 100 µM | COLO 205 > 100 µM | UO-31 > 100 µM | UACC-62 > 100 µM | SK-MEL-5 > 100 µM | NCI-H226 > 100 µM | MOLT-4 > 100 µM | K562 > 100 µM | SNB-75 > 100 µM | UACC-257 > 100 µM
> 100 µM: HCT-15

CN(CCCN=C=S)CCCN1c2ccccc2CCc2ccccc21
inactive: TK-10 1.82 µM | HCC 2998 1.31 µM | EKVX 1.88 µM | HCT-116 1.71 µM | LOX IMVI 1.88 µM | RPMI-8226 1.87 µM | HOP-92 2.07 µM | A498 1.66 µM | SF-539 1.76 µM | COLO 205 1.66 µM | UO-31 1.62 µM | UACC-62 1.79 µM | SK-MEL-5 1.78 µM | NCI-H226 2.04 µM | UACC-257 2.03 µM | Malme-3M 1.99 µM
active: MOLT-4 0.611 µM | K562 0.45 µM
1.49 µM: HCT-15

c1ccc(C2N=C(c3ccccn3)C(c3ccccn3)=NC2c2ccccc2)cc1 (stereo unspecified)
inactive: TK-10 > 100 µM | HCC 2998 > 100 µM | EKVX > 100 µM | HCT-116 > 100 µM | LOX IMVI > 100 µM | RPMI-8226 > 100 µM | HOP-92 > 100 µM | A498 > 100 µM | SF-539 > 100 µM | COLO 205 > 100 µM | UO-31 > 100 µM | UACC-62 > 100 µM | SK-MEL-5 > 100 µM | NCI-H226 > 100 µM | MOLT-4 > 100 µM | K562 > 100 µM | UACC-257 > 100 µM | Malme-3M > 100 µM
> 100 µM: HCT-15

Cc1ccc(/C=N/n2c(Cc3ccccc3)n[nH]c2=O)cc1
inactive: TK-10 > 100 µM | HCC 2998 > 100 µM | EKVX > 100 µM | HCT-116 > 100 µM | LOX IMVI > 100 µM | RPMI-8226 > 100 µM | HOP-92 37 µM | A498 > 100 µM | SF-539 > 100 µM | COLO 205 > 100 µM | UO-31 > 100 µM | SK-MEL-5 > 100 µM | NCI-H226 > 100 µM | MOLT-4 > 100 µM | K562 > 100 µM | SNB-75 40.2 µM | UACC-257 > 100 µM | Malme-3M > 100 µM
> 100 µM: HCT-15

Cc1ccc(/C=C/C(=O)c2cc(CN(C)C)c(O)c(CN(C)C)c2)cc1
inactive: TK-10 28.8 µM | HCC 2998 18.5 µM | EKVX 25.7 µM | HCT-116 15.5 µM | LOX IMVI 6.65 µM | RPMI-8226 13.2 µM | HOP-92 31.9 µM | A498 25.2 µM | SF-539 16.6 µM | COLO 205 10.6 µM | UO-31 15.7 µM | SK-MEL-5 14.7 µM | NCI-H226 22.5 µM | MOLT-4 16 µM | K562 13.8 µM | SNB-75 24.4 µM | UACC-257 13.8 µM | Malme-3M 18.3 µM
14.4 µM: HCT-15
